Paper PMC5344255, “Design, Synthesis and Biochemical Evaluation of Novel Selective Estrogen Receptor Ligand Conjugates Incorporating an Endoxifen-Combretastatin Hybrid Scaffold” (Biomedicines, 2016)
Where “and” joins values, the source holds several entries; their conditions need not be identical. Equal entries are not always repeated. Marks after values point to notes of the source that are not given here.

Tests used:
MALME-3M = experiment: NCI 60 cell line screen; assay type: cell-based, human; conditions: MALME-3M (Melanoma); one-dose 10 µM
HCT-116 = experiment: NCI 60 cell line screen; assay type: cell-based, human; conditions: HCT-116 (Colon Cancer)
HCT-2998 = experiment: NCI 60 cell line screen; assay type: cell-based, human; conditions: HCT-2998 (Colon Cancer)
COLO 205 = experiment: NCI 60 cell line screen; assay type: cell-based
[1] = system: Ishikawa cell line of human endometrial adenocarcinoma cells; experiment: Ishikawa assay, estrogen stimulation of alkaline phosphatase activity; assay type: cell-based
Method: The Ishikawa assay is used to measure estrogen stimulation of alkaline phosphatase enzyme activity (AlkP) by the Ishikawa cell line of human endometrial adenocarcinoma cells. The Ishikawa assay provides a measure of the agonist activity of a compound. […] The assay was carried out following the method of Littlefield et al.. The batch of Ishikawa cells were obtained as a gift from Professor R. Hochberg—who developed the alkaline phosphatase assay in Yale University, CT, USA.
The Ishikawa assay is used to measure estrogen stimulation of alkaline phosphatase enzyme activity (AlkP) by the Ishikawa cell line of human endometrial adenocarcinoma cells. […] The conjugate was dosed in duplicate.

[2] = system: MCF-7 human breast cancer cells; experiment: Lactate dehydrogenase (LDH) cytotoxicity assay in MCF-7; assay type: cell-based; conditions: % cell lysis at 10 µM
Method in brief: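 Cells seeded at 1 × 10^4 per well and grown 24 h, then dosed with compounds over 1 nM–50 μM. Cell lysis quantified as released cytoplasmic LDH using the CytoTox 96 nonradioactive cytotoxicity assay.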

OVCAR-3 = experiment: NCI 60 cell line screen; assay type: cell-based, human; conditions: OVCAR-3 (Ovarian Cancer); one-dose 10 µM
MOLT-4 = experiment: NCI 60 cell line screen; assay type: cell-based, human; conditions: MOLT-4 (Leukemia)
KM12 = experiment: NCI 60 cell line screen; assay type: cell-based, human; conditions: KM12 (Colon Cancer)
UACC-257 = experiment: NCI 60 cell line screen; assay type: cell-based, human; conditions: UACC-257 (Melanoma); one-dose 10 µM
SK-MEL-5 = experiment: NCI 60 cell line screen; assay type: cell-based
MDA-MB-468 = experiment: NCI 60 cell line screen; assay type: cell-based, human; conditions: MDA-MB-468 (Breast Cancer); one-dose 10 µM
OVCAR-5 = experiment: NCI 60 cell line screen; assay type: cell-based, human; conditions: OVCAR-5 (Ovarian Cancer); one-dose 10 µM
K-562 = experiment: NCI 60 cell line screen; assay type: cell-based, human; conditions: K-562 (Leukemia)
NCI-H226 = experiment: NCI 60 cell line screen; assay type: cell-based, human
PC-3 = experiment: NCI 60 cell line screen; assay type: cell-based, human; conditions: PC-3 (Prostate cancer)
[3] = system: MDA-MB-231 human breast cancer cells; experiment: MTT assay for antiproliferative effects in MDA-MB-231; assay type: cell-based; conditions: MDA-MB-231, MTT assay
HT29 = experiment: NCI 60 cell line screen; assay type: cell-based, human; conditions: HT29 (Colon Cancer)

`CCC(=C(c1ccc(O)cc1)c1ccc(OCCN(C)C(=O)/C(=C/c2ccc(OC)c(O)c2)c2cc(OC)c(OC)c(OC)c2)cc1)c1ccc(O)cc1` (mixture of isomers) [Compound 28, (E)-N-(2-{4-[(E/Z)-1,2-Bis-(4-hydroxyphenyl)but-1-enyl]-phenoxy}ethyl)-3-(3-hydroxy-4-methoxyphenyl)-N-methyl-2-(3,4,5-trimethoxyphenyl)acrylamide] was tested, and the “GI% (10^−5 M)” value (MALME-3M) was 1.76%, the “GI% (10^−5 M)” value (HCT-116; one-dose 10 µM) was 98% and 97.57% and the GI50 (HCT-116; Homo sapiens, five-dose screen) was 1800 nM. The “GI% (10^−5 M)” value (HCT-2998; one-dose 10 µM) was 100 ^d,j %, the GI50 (HCT-2998; Homo sapiens, 60 cell, five-dose screen) was 1250 nM and the “GI% (10^−5 M)” value (COLO 205; COLO 205 (Colon Cancer), one-dose 10 µM) was 100 ^d,i %. For the same molecule, the GI50 (COLO 205; Homo sapiens, COLO 205) was 2150 nM, the LC50 (COLO 205; Homo sapiens, COLO 205, five-dose screen) was 26200 nM and the “estrogenic activity (alkaline phosphatase stimulation)” value ([1]; compound dosed individually) was “does not display estrogenic stimulation in the cell line”. The “estrogen stimulation (alkaline phosphatase) in mixture with estradiol” value ([1]; dosed with 1 nM estradiol spike) was “a reduction in estrogenic stimulation at low concentrations and a more pronounced reduction in estrogen stimulation over the range of concentrations when compared with the Tamoxifen mixture”, the “% Cell Death at 10 μM” value [2] was 17% and the “GI% (10^−5 M)” value (OVCAR-3) was 1%. For the same molecule, the GI50 (MOLT-4; Homo sapiens, five-dose screen) was 1520 nM, the “GI% (10^−5 M)” value (MOLT-4; one-dose 10 µM) was 64.31% and the GI50 (KM12; Homo sapiens, five-dose screen) was 1260 nM. For the same molecule, the “GI% (10^−5 M)” value (KM12; one-dose 10 µM) was 100 ^d,m %, the “GI% (10^−5 M)” value (UACC-257) was 2.83% and the CC50 (SK-MEL-5; Homo sapiens, five-dose screen, read-out: LC50 (the source's name)) was 34500 nM. For the same molecule, the lethality (SK-MEL-5; one-dose screen 10 μM) was 60%, the “GI% (10^−5 M)” value (MDA-MB-468) was 1.12% and the “GI% (10^−5 M)” value (OVCAR-5) was 3.21%. The GI50 (K-562; Homo sapiens, K562, five-dose screen) was 2570 nM, the “GI% (10^−5 M)” value (K-562; one-dose 10 µM) was 86.1% and the GI50 (NCI-H226; Homo sapiens, NCI-H226 (Non-Small Cell Lung Cancer), five-dose screen) was 1180 nM. For the same molecule, the “GI% (10^−5 M)” value (NCI-H226; NCI-H226 (Non-Small Cell Lung Cancer), one-dose 10 µM) was 100 ^d,g %, the lethality (NCI-H226; NCI-H226, one-dose screen 10 μM) was 73% and the GI50 (PC-3; Homo sapiens, five-dose screen) was 1730 nM. The “GI% (10^−5 M)” value (PC-3; one-dose 10 µM) was 86.32%, the IC50 [3] was 2480 nM and the “GI% (10^−5 M)” value (HT29; one-dose 10 µM) was 100 ^d,l %. The GI50 (HT29; Homo sapiens, HT-29, five-dose screen) was 1160 nM.
